We go through 29 substances from patent US20240368668A1, “SUBSTRATES AND BIOMARKERS OF ADAMTS7” (The Broad Institute, Inc., priority 2021, published 2024).

Square brackets hold non-standard residues; d marks the D form. Ends that are not written are not given here.

The subject of one test is mouse ADAMTS7. The test can be described thus: TMT10 TAILS N-terminomics, SMC2 experiment (process replicates, trypsin/AspN digest). Format: cell-based. The settings on record: SMC2_TAILS HC; log fold change of N-terminal peptide, Ad-mADAMTS7 WT over EQ. The source says: ADAMTS7 Expression, Cell Culture and Preparation of the Secreted Proteins—Full-length mouse Adamts7 1-1857 (Uniprot Q68SA9, WT or E373Q catalytic mutant) with a carboxyl terminal 3xFLAG tag was used to generate custom adenoviruses as previously described. Adeno-CMV-Luciferase (Ad-Luc) from Vector Biolabs was used as a negative control. Human Coronary Artery Smooth Muscle Cells (HCA-SMC) were obtained from Lonza and expanded in Lonza SmGM-2 media in 15 cm tissue culture plates. Twenty-four hours before media collection, near confluent plates were transduced with 50 MOI adenovirus and switched to Lonza Basal SM media with volumes of 20 ml per 15 cm plate. Expression of the Flag tagged ADAMTS7 was confirmed from the media using western blot and detected using the anti-Flag M2-HRP antibody (Sigma, A8592). Collected media was processed by adding protease inhibitors (1 mM EDTA and 1 mM PMSF) and clarified by 500 g×5 min spin at 4 C to pellet cell debris. Cell media supernatants were then passed through a 0.22 um filter and kept chilled. Processed media was then concentrated 50-100× using 3 kDa Centricon Plus-70 filter unit, spun at 3,500 g×60 min at 4 C. Approximately 10% of the processed, concentrated media was set aside for total secretome proteolytic analysis. The remaining 90% of the processed, concentrated media was buffer exchanged into 50 mM HEPES pH 8.0, 150 mM NaCl (2×50 ml) using the 3 kDa Centricon Plus-70 filter unit and concentrated to >2 mg/ml to serve as input for the TAILS experiment. Secretome and TAILS input samples were stored at −80° C.
For the first experiment, referred to as SMC1, 120 ml of media from 6×15 cm dishes was pooled from each condition (Luc, WT, EQ) and processed to produce three separate inputs for the TAILS experiment. Luc, WT and EQ inputs from the SMC1 experiment were each divided into triplicate 400 ug samples to generate technical replicate TAILS data. For the second experiment, referred to as SMC2, media was processed separately in triplicate for each condition (Luc1, Luc2, Luc3, WT1, WT2, WT3, EQ1, EQ2, EQ3) using 60 ml of media from 3×15 cm dishes for each process replicate. Inputs from the SMC2 experiment used process replicates of 300 ug each to generate TAILS data. The third experiment used input from cultured Human umbilical vein endothelial cells (HUVEC) from Lifeline Cell Technology grown in VascuLife Media and transduced in Lifeline Basal EC (+bFGF2 10 ng/ml). The HUVEC experiment used the same strategy as the SMC2 experiment, with 40 ml of media from 2×15 cm dishes for each process replicate and used 200 ug each to generate TAILS data. Inputs for process replicate experiments were restricted to the lowest concentration from the 9 parallel samples for SMC2 or HUVEC.
TMT10 isotopic labeling and negative selection of non-labeled peptides-Sample preparation was performed based on the TAILS protocol from the Overall lab with some modifications. From a single experiment, nine parallel protein samples in 50 mM HEPES pH 8.0, 150 mM NaCl were separately denatured with guanidinium chloride (Sigma, G4505) to reach a final concentration of 2.5M guanidinium chloride and 250 mM HEPES and incubated at 65° C. for 15 min. Reduction was achieved through addition of tris(2-carboxylethyl) phosphine (TCEP) at a final concentration of […] and incubated at 65° C. for 45 min. Alkylation reaction was performed with addition of iodoacetamide (IAA, Sigma, A3221) to a final concentration of 10 mM IAA for 15 min at room temperature in the dark. Following denaturation, reduction and alkylation steps, ten percent of each of the nine parallel protein samples was removed and combined to serve as a pooled reference. Isobaric tags were added to free amine groups using the TMT10plex Isobaric Mass Tagging Kit (ThermoFisher, 90113) with TMT channels randomly assigned to the nine samples and TMT 131 assigned to the pooled reference. […]
With “LOXL1_219 (VASAGVIYPYQPR; listed as Homo sapiens)”, the logFC.mWT.over.mEQ came out at 1.47. For “LOXL2_37 (FQQPAPEYHQPQAPANVAKIQLR; listed as Homo sapiens)”, the logFC.mWT.over.mEQ was 3.30. Still for that read-out and setting: to “LOXL2_38 ([code q]QPAPEYHQPQAPANVAKIQLR; not fully specified; listed as Homo sapiens)” belongs 1.68. Substance “LTBP1_393 (LTATNFR; listed as Homo sapiens)” displayed a logFC.mWT.over.mEQ of 6.30.

“LTBP1_540 (HQQVIPHVYPVAAKTQLGR; listed as Homo sapiens)”: the logFC.mWT.over.mEQ was determined as 1.77.

The same test, now with this note: SMC2_TAILS HC; log fold change, mWT over mEQ.
“AEBP1_37 (FLEGFLSELEPEPR; listed as Homo sapiens)” had a logFC.mWT.over.mEQ of 3.48.

With “CCDC80_66 (LEEPNLQPLQR; listed as Homo sapiens)”, the logFC.mWT.over.mEQ turned out to be 2.21. Substance “EFEMP1_124 (AVAGPEMQTGR; listed as Homo sapiens)” yielded a logFC.mWT.over.mEQ of 3.27. In the case of “EFEMP1_125 (VAGPEMQTGR; listed as Homo sapiens)”, the logFC.mWT.over.mEQ stood at 2.42. As to “FBLN2_259 (ALGPPAPVQAKAR; listed as Homo sapiens)”, the logFC.mWT.over.mEQ came out at 1.88. Take “FBLN2_260 (LGPPAPVQAKAR; listed as Homo sapiens)”: the logFC.mWT.over.mEQ came out at 2.42. “FBN1_29 (LEAGNVKETR; listed as Homo sapiens)” came in with a logFC.mWT.over.mEQ of 3.57. As for “FBN1_53 (LKGPNVCGSR; listed as Homo sapiens)”, the logFC.mWT.over.mEQ is 4.89. “FLNA_1285 (LTQTGGPHVKAR; listed as Homo sapiens)” returned a logFC.mWT.over.mEQ of 5.72. “FN1_36 (MVQPQSPVAVSQSKPGCYDNGKHYQINQQWER; listed as Homo sapiens)” registered a logFC.mWT.over.mEQ of 3.69. On the same count and under the same terms, to “FN1_40 (QSPVAVSQSKPGCYDNGKHYQINQQWER; listed as Homo sapiens)” belongs 2.66; to “FN1_1143 (LTPGVEYVYTIQVLR; listed as Homo sapiens)”, 2.80. “FN1_1656 (SSSPVTGYR; listed as Homo sapiens)” came in with a logFC.mWT.over.mEQ of 1.86.

“GSN_413 (HIANVER; listed as Homo sapiens)” gave a logFC.mWT.over.mEQ of 1.74. Same read-out and setting: to “HSPG2_275 (LLPGSVR; listed as Homo sapiens)” belongs 2.10; to “HSPG2_2331 (ANLAYPAGSTQPIR; listed as Homo sapiens)”, 1.91; to “HSPG2_2333 (LAYPAGSTQPIR; listed as Homo sapiens)”, 1.41. Regarding “IGFBP3_31 (SAGLGPVVR; listed as Homo sapiens)”, the logFC.mWT.over.mEQ was 2.44. On to “IGFBP3_32 (AGLGPVVR; listed as Homo sapiens)”, for which the logFC.mWT.over.mEQ is 5.18. “IGFBP7_101 (AAGGPGVSGVCVCKSR; listed as Homo sapiens)”: the logFC.mWT.over.mEQ turned out to be 2.57. “LOX_58 (LSLGSQYQPQR; listed as Homo sapiens)” registered a logFC.mWT.over.mEQ of 1.77.

Consider “LOX_123 (HWFQAGYSTSR; listed as Homo sapiens)”, for which the logFC.mWT.over.mEQ amounted to 1.37. “LOX_124 (WFQAGYSTSR; listed as Homo sapiens)”: the logFC.mWT.over.mEQ turned out to be 3.45. Consider “LOX_126 (QAGYSTSR; listed as Homo sapiens)”, for which the logFC.mWT.over.mEQ was found to be 3.03.
